In one assay the test system is BAX KO (BAX-/-) MEFs. The assay is described as follows: Cytochrome c release assay (ELISA), BAX KO MEFs. The assay is classed as cell-based, mouse. The settings on record: BIM-BH3 peptide. On the procedure:
BAX^-/^- or BAK^-/^- mouse embryonic fibroblasts were maintained in DMEM (Life Technologies) supplemented with 10% FBS, 100 U/mL penicillin/streptomycin, 2 mM I-glutamine, and 0.1 mM MEM nonessential amino acids. MEFs (5×10^4 cells/well) were seeded in a 96 well clear u-bottom plate for 18-24 hr. Media was removed and replaced with media lacking FBS, and cells were treated with varying doses of EO for 2 hours at 37° C. […] Cytochrome c release was determined by decanting 50 µL of the supernatant and analyzing with the rat/mouse cytochrome c quantikine ELISA kit (R&D Systems, MCTO) according to the recommended protocol. […]
It is important to note that THPO-receptor agonist activity of EO is highly specific to the human and chimpanzee THPO-receptors, making mouse cell lines ideal for studying EO modulation of BAX-dependent activity independent of THPO-mediated effects (Erickson-Miller, C. L. et al. Stem Cells 27, 424-430 (2009)). First, mitochondrial cytochrome c release, a hallmark of BAX activation and BAX-dependent apoptosis, was evaluated. […] Next, mitochondrial translocation of cytosolic BAX upon treatment with either BIM BH3 or staurosporine (STS) in BAK KO MEFs was evaluated.

Assay [1] deals with T1, BAX (Homo sapiens, UniProt Q07812).
T1 construct: Human full-length (1-192) wild-type BAX (Q07812); made in house; host or cells: E. coli BL21 (DE3) CodonPlus (DE3)-RIPL
T1 sequence (Q07812 whole entry): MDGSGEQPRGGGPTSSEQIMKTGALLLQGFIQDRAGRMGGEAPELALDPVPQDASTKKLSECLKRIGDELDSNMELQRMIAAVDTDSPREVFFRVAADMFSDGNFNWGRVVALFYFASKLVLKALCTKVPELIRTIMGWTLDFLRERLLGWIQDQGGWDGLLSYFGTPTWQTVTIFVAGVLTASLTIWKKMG
The assay is described as follows: BAX conformation change assay using anti-6A7 immunoprecipitation. The assay is classed as biochemical. The settings on record: BAX 10 µM, 4 equivalents BIM-BH3, 5 or 10 equivalents EO. On the procedure:
Exposure of the 6A7 epitope of BAX was assessed by immunoprecipitation with a 6A7-domain-specific antibody purchased from Santa Cruz (SC-23959). Protein G beads (50 µL, Santa Cruz) were washed three times with 3% BSA in PBS and incubated with 15 µL 6A7 antibody at 4° C. for 1 hr. Recombinant full-length BAX (10 µM) was incubated with 4 equivalents of BIM-BH3 peptide alone and in the presence of 5 or 10 equivalents of EO for 15 min at room temperature. Incubation of full-length recombinant BAX with 0.1% Triton X served as a positive control for exposure of the 6A7 epitope. After incubation, 10 µL of each reaction was transferred to the protein G beads pre-loaded with the anti-6A7 antibody, and 1 µL was reserved as a loading control. After 90 minutes of incubation at 4° C. beads were collected and washed three times with […] of 3% BSA in PBS and solubilized with 25 µL LDS/DTT loading buffer. Samples were resolved by SDS-PAGE electrophoresis and western blot analysis with an anti-BAX yth-2D2 antibody (Invitrogen).
Prior to permeabilizing membranes, activated BAX must first translocate to the membrane (Lovell, J. F. et al. Cell 135, 1074-1084, (2008)). To explore this earlier step in BAX activation, an NBD-fluorescence-based translocation assay was used. […]

Assay [2] deals with T1, BAX. The assay is described as follows: Competitive fluorescence polarization binding assay (FPA), BAX / FITC-BIM-SAHB. The conditions noted are these: FITC-BIM-SAHB 25 nM. On the procedure:
Fluorescence polarization assays (FPA) were performed as previously described (Gavathiotis, E., et al. Nat Chem Biol 8, 639-645 (2012)). Direct binding isotherms of BIM-SAHB were measured by incubated FITC-BIM-SAHB (25 nM) with serial dilutions of full-length BAX alone or in the presence of 0.5 or 1 µM EO. Competition binding assays were performed by titrating ED into BAX (150 nM) and FITC-BIM-SAHB (25 nM). Measurements were taken at 10-minute intervals over 60 minutes on a TECAN F200 PRO microplate reader. Reported curves represent 10-minute time point. KD values and IC50 were determined using GraphPad Prism nonlinear fit four-parameter agonist or antagonist versus response with restraints for 100% and 0% bound calculated by the mP of saturated BAX + FITC-BIM-SAHB and FITC-BIM-SAHB alone.
To test this hypothesis, a competitive fluorescence polarization assay (FPA) (Gavathiotis, E., et al. Nat Chem Biol 8, 639-645 (2012)) based on the interaction between BAX and fluorescently-labeled stapled BIM-BH3 peptide (FITC-BIM-SAHB) was used (Gavathiotis, E., et al. Nature 455, 1076-1081 (2008)). […] The IC50 and KD are consistent with a competitive binding mechanism of EO displacing FITC-BIM-SAHB from the N-terminal trigger site of BAX.

Assay [3] has as its target T1, BAX. Put plainly: Recombinant BAX TM (Tycho NT.6). The settings on record: 1:10 BAX:EO. The assay is classed as binding. On the procedure: Purified recombinant BAX ([…]) was combined with DMSO or EO (1:10 BAX:EO) and loaded into Tycho NT.6 (NanoTemper Technologies) capillaries. First derivative (330/350 nm) melting point curves were generated automatically using the Tycho NT.6 (NanoTemper Technologies). Data was exported and to GraphPad PRISM software for analysis and visualization.
To confirm direct engagement of BAX, Cellular Thermal Shift Assay (CETSA) was performed in BAK KO MEFs.

Take `CC1=NN(c2ccc(C)c(C)c2)C(=O)/C1=N\Nc1cccc(-c2cccc(C(=O)O)c2)c1O` [EO, eltrombopag]: the “BIM-BH3 induced release of cytochrome c” value in the assay on BAX KO (BAX-/-) MEFs is “no such effect”. The “BIM-BH3 induced 6A7 epitope exposure” value at BAX [1] is reported as “inhibited”. Also, the IC50 on BAX [2] (BAX 150 nM, 10-minute time point, read-out: half-maximal inhibition IC50, competition of FITC-BIM-SAHB) was 207 nM. Also, the “affinity of BAX for FITC-BIM-SAHB in the presence of EO” value on BAX [2] (direct binding titration of BAX, 0.5 or 1 µM EO) was “decreased affinity”. Besides, on BAX [3], the “change in TM of recombinant BAX” value is “comparable reduction in TM”.

(Values after patent publication US20230270721A1, “INHIBITION OF BAX-MEDIATED CELL DEATH BY ELTROMBOPAG” (Albert Einstein College of Medicine, priority 2020, published 2023).)
